Test results as given in US20070092577A1, “Dietary calcium for reducing the production of reactive oxygen species” (University of Tennessee Research Foundation, priority 2005, published 2007).

Columns and labels:
[1] = tested on: [Ca^2+]i in cultured 3T3-L1 adipocytes; test: Intracellular calcium in cultured adipocytes (fura-2); assay type: cell-based, murine; settings: 4 hours
Experimental: 3T3-L1 preadipocytes were incubated at a density of 8000 cells/cm^2 (10 cm^2 dish) and grown in Dulbecco's modified Eagle's medium (DMEM) containing 10% FBS and antibiotics (adipocyte medium) at 37° C. in 5% CO2 in air. Confluent preadipocytes were induced to differentiate with a standard differentiation medium consisting of DMEM-F 10 (1:1, vol/vol) medium supplemented with 1% FBS, 1 μM dexamethasone, IBMX (0.5 mM) and antibiotics (1% Penicillin-Streptomycin). Preadipocytes were maintained in this differentiation medium for 3 days and subsequently cultured in adipocyte medium. Cultures were re-fed every 2-3 days to allow 90% of cells to reach full differentiation before conducting chemical treatment. Chemicals were freshly diluted in adipocyte medium before treatment. Cells were washed with fresh adipocyte medium, re-fed with medium containing the different treatments, and incubated at 37° C. in 5% CO2 in air before analysis. Cell viability was measured via trypan blue exclusion. [Ca^2+]i in adipocytes was measured using a fura-2 dual-wavelength fluorescence imaging system. Cells were plated in 35-mm dishes […]). […] Cells were loaded with fura-2 acetoxymethyl ester (fura-2 AM) (10 μmol/L) in the same buffer for 2 h at 37° C. in a dark incubator with 5% CO2. To remove extracellular dye, cells were rinsed with HBSS three times and then post-incubated at room temperature for an additional 1 h for complete hydrolysis of cytoplasmic fura-2 AM. The dishes with dye-loaded cells were mounted on the stage of Nikon TMS-F fluorescence inverted microscope with a Cohu model 4915 charge-coupled device (CCD) camera. Fluorescent images were captured alternatively at excitation wavelengths of 340 and 380 nm with an emission wavelength of 520 nm. After establishment of a stable baseline, the responses to 1α, 25-(OH)2-D3 was determined. [Ca^2+]i was calculated using a ratio equation as described previously. Each analysis evaluated responses of 5 representative whole cells. Images were analyzed with […]2 version 4.62 imaging software (Intracellular Imaging, Cincinnati, Ohio). […]

[2] = tested on: adiponectin; test: Adiponectin expression in differentiated 3T3-L1 adipocytes; assay type: cell-based, mouse; settings: 100 nmol/L H2O2 or 1 μmol/L α±tocopherol, 48 h
Experimental: (§1) 3T3-L1 pre-adipocytes were incubated at a density of 8000 cells/cm^2 (10 cm^2 dish) and grown in Dulbecco's modified Eagle's medium (DMEM) containing 10% FBS and antibiotics (adipocyte medium) at 37° C. in 5% CO2 in air. Confluent pre-adipocytes were induced to differentiate with a standard differentiation medium consisting of DMEM-F10 (1:1, vol/vol) medium supplemented with 1% fetal bovine serum (FBS), 1 μM dexamethasone, isobutylmethylxanthine (IBMX) (0.5 mM) and antibiotics (1% Penicillin-Streptomycin). Pre-adipocytes were maintained in this differentiation medium for 3 days and subsequently cultured in adipocyte medium. Cultures were re-fed every 2-3 days to allow 90% cells to reach fully differentiation before conducting chemical treatment. […] Cell viability was measured via trypan blue exclusion. Adipocyte and muscle 18s, TNFα, IL-6, IL-8, IL-15 and adiponectin were quantitatively measured using a smart cycler real-time PCR system (Cepheid, Sunnyvale, Calif.) with a TaqMan 1000 Core Reagent Kit (Applied Biosystems, Branchburg, N.J.). […] Reactions of quantitative RT-PCR for standards and unknown samples were also performed according to the instructions of Smart Cycler System (Cepheid, Sunnyvale, Calif.) and TaqMan Real Time PCR Core Kit (Applied Biosystems, Branchburg, N.J.). The mRNA quantitation for each sample was further normalized using the corresponding 18s quantitation.

[3] = tested on: IL-15; test: IL-15 expression in differentiated 3T3-L1 adipocytes; assay type: cell-based, mouse
Experimental: as §1

[4] = tested on: ROS production in cultured 3T3-L1 adipocytes; test: ROS production in cultured adipocytes (H2-DCFDA); assay type: cell-based, murine; settings: 48 hours
Experimental: 3T3-L1 preadipocytes were incubated at a density of 8000 cells/cm^2 (10 cm^2 dish) and grown in Dulbecco's modified Eagle's medium (DMEM) containing 10% FBS and antibiotics (adipocyte medium) at 37° C. in 5% CO2 in air. Confluent preadipocytes were induced to differentiate with a standard differentiation medium consisting of DMEM-F 10 (1:1, vol/vol) medium supplemented with 1% FBS, 1 μM dexamethasone, IBMX (0.5 mM) and antibiotics (1% Penicillin-Streptomycin). Preadipocytes were maintained in this differentiation medium for 3 days and subsequently cultured in adipocyte medium. Cultures were re-fed every 2-3 days to allow 90% of cells to reach full differentiation before conducting chemical treatment. Chemicals were freshly diluted in adipocyte medium before treatment. Cells were washed with fresh adipocyte medium, re-fed with medium containing the different treatments, and incubated at 37° C. in 5% CO2 in air before analysis. Cell viability was measured via trypan blue exclusion. […] Cells were loaded with H2-DCFDA (2 μmol/L) 30 minute before the end of the incubation period (48 h). After washing twice with PBS, cells were scraped and disrupted by sonication on ice (20s). Fluorescence (emission 543 nm or 527 nm) and DNA content were then measured as described previously. The intensity of fluorescence was expressed as arbitary units per ng DNA.

[5] = tested on: TNFα; test: TNFα expression in differentiated 3T3-L1 adipocytes; assay type: cell-based, mouse; settings: 10 nmol/L, 48 h
Experimental: as §1

| SMILES | increase in [Ca^2+]i ([1]; H2O2 100 nmol/L or glucose 30 mmol/L, p<0.001) [fold] | effect on adiponectin production [2] | effect on IL-15 expression ([3]; 100 nmol/L H2O2, 48 h) | effect on high glucose induced ROS production ([4]; added to glucose 30 mmol/L, nifedipine 10 μmol/L) | stimulation of TNFα expression [5] [%] | effect on ROS production in all groups ([4]; α-tocopherol 1 μmol/L) | effect on H2O2 induced increase in [Ca^2+]i ([1]; α-tocopherol 1 μmol/L with H2O2 100 nmol/L) | effect on glucose induced increase in [Ca^2+]i ([1]; α-tocopherol 1 μmol/L with glucose 30 mmol/L) | increase of IL-15 as compared to H2O2-treated cells ([3]; 1 μmol/L α±tocopherol added to 100 nmol/L H2O2, 48 h, P=0.043) [fold] |
| --- | --- | --- | --- | --- | --- | --- | --- | --- | --- |
| OO [H2O2, hydrogen peroxide] | 5 | without significant effect | no direct effect | – | – | – | – | – | – |
| C=C1/C(=C\C=C2/CCC[C@]3(C)[C@@H]([C@H](C)CCCC(C)(C)O)CC[C@@H]23)C[C@@H](O)C[C@@H]1O [calcitriol, 1, 25-Dihydroxyvitamin D] | – | – | – | greater stimulation of ROS production than either glucose alone or glucose plus GDP | 135 | – | – | – | – |
| Cc1c(C)c2c(c(C)c1O)CC[C@@](C)(CCC[C@H](C)CCC[C@H](C)CCCC(C)C)O2 [α-tocopherol] | – | increased | – | – | – | inhibited | reversed | partially blocked | 2.2 |
